# In ChEMBL document CHEMBL5113509, “Synthesis and evaluation of 3'- and 4'-substituted cyclohexyl noviomimetics that modulate mitochondrial respiration” (Bioorg Med Chem, 2022):
# Calls of active or inactive are those of the source. The rule behind the calls is not given here.
# Key:
# N2a [1] = test: Cytoprotective activity against mouse N2a cells assessed as increase in mitochondrial ATP production at 100 to 1000 nM measured by Seahorse extracellular flux analyzer based assay; format: functional, cell-based; conditions: dose 100-1000 nM
# Homo sapiens = species on record: Homo sapiens; test: Disruption of HSP90 alpha (unknown origin) and PPID (unknown origin) at 50 uM measured after 1 hr by AlphaLISA assay relative to control
# N2a [2] = test: Cytoprotective activity against mouse N2a cells assessed as decrease in mitochondrial ATP production at 100 to 1000 nM measured by Seahorse extracellular flux analyzer based assay; format: functional, cell-based; conditions: dose 100-1000 nM
SMILES,Activity (N2a [1]),Activity (Homo sapiens) [%],Activity (N2a [2])
CC(=O)NCCc1ccc(O[C@H]2CC[C@H](Nc3ccccc3)CC2)cc1-c1cccc(F)c1,Active,< 50,–
O[C@H]1CC[C@H](Oc2ccc(Cl)cc2)CC1,Active,–,–
CC(=O)NCCc1ccc(O[C@H]2CC[C@@H](OCc3ccccc3)CC2)cc1-c1cccc(F)c1,Active,–,–
CC(=O)NCCc1ccc(O[C@@H]2CCC[C@H](Sc3ccccc3)C2)cc1-c1cccc(F)c1,Active,> 50,–
CC(=O)NCCc1ccc(O[C@@H]2CCC[C@@H](Cc3ccccc3)C2)cc1-c1cccc(F)c1,Active,> 50,–
CC(=O)NCCc1ccc(O[C@H]2CC[C@H](Sc3ccccc3)CC2)cc1-c1cccc(F)c1,Active,> 50,–
CC(=O)NCCc1ccc(O[C@H]2CCC[C@@H](Nc3ccccc3)C2)cc1-c1cccc(F)c1,Active,> 80,–
CC(=O)NCCc1ccc(O[C@H]2CCC[C@@H](Sc3ccccc3)C2)cc1-c1cccc(F)c1,Active,> 50,–
CC(=O)NCCc1ccc(O[C@@H]2CCC[C@@H](OCc3ccccc3)C2)cc1-c1cccc(F)c1,Active,< 50,–
CC(=O)NCCc1ccc(O[C@H]2CC[C@@H](Nc3ccccc3)CC2)cc1-c1cccc(F)c1,Active,> 80,–
CC(=O)NCCc1ccc(O[C@H]2CCC[C@@H](Oc3ccccc3)C2)cc1-c1cccc(F)c1,Active,> 50,–
CC(=O)NCCc1ccc(O[C@H]2CCC[C@@H](N(C)c3ccccc3)C2)cc1-c1cccc(F)c1,Active,< 50,–
CC(=O)NCCc1ccc(O[C@H]2CC[C@H](Oc3ccc(Cl)cc3Cl)CC2)cc1-c1cccc(F)c1,Active,> 50,–
CC(=O)NCCc1ccc(O[C@H]2CC[C@H](Oc3ccccc3)CC2)cc1-c1cccc(F)c1,Active,> 50,–
CC(=O)NCCc1ccc(O[C@H]2CC[C@H](S(=O)(=O)Cc3ccccc3)CC2)cc1-c1cccc(F)c1,Active,> 50,–
CC(=O)NCCc1ccc(O[C@H]2CC[C@@H](C(F)(F)Cc3ccccc3)CC2)cc1-c1cccc(F)c1,Active,> 50,–
O[C@H]1CC[C@H](Oc2cccc(Cl)c2)CC1,Active,–,–
CC(=O)NCCc1ccc(O[C@H]2CC[C@H](Oc3ccccc3Cl)CC2)cc1-c1cccc(F)c1,Active,> 50,–
CC(=O)NCCc1ccc(OC2CCC(Oc3ccccc3)[C@H](O)[C@@H]2O)cc1-c1cccc(F)c1 (stereo partly drawn),Active,–,–
CC(=O)NCCc1ccc(O[C@H]2CC[C@@H](Oc3ccc(Cl)cc3)CC2)cc1-c1cccc(F)c1,–,> 50,Active
CC(=O)NCCc1ccc(O[C@H]2CC[C@@H](Cc3ccccc3)CC2)cc1-c1cccc(F)c1,Active,> 50,–
CC(=O)NCCc1ccc(O[C@H]2CC[C@@H](Oc3ccccc3Cl)CC2)cc1-c1cccc(F)c1,Active,> 50,–
CC(=O)NCCc1ccc(O[C@H]2CC[C@@H](N(C)c3ccccc3)CC2)cc1-c1cccc(F)c1,Active,< 50,–
CC(=O)NCCc1ccc(O[C@H]2CC[C@H](C(F)(F)Cc3ccccc3)CC2)cc1-c1cccc(F)c1,Active,> 50,–
CC(=O)NCCc1ccc(O[C@H]2CC[C@H](CCc3ccccc3)CC2)cc1-c1cccc(F)c1,Active,> 50,–
CC(=O)NCCc1ccc(O[C@H]2CC[C@H](Oc3ccc(Cl)cc3)CC2)cc1-c1cccc(F)c1,–,> 50,Active

SMILES,Activity (N2a [1]),Activity (Homo sapiens) [%],Activity (N2a [2])
CC(=O)NCCc1ccc(O[C@H]2CC[C@@H](S(=O)(=O)c3ccccc3)CC2)cc1-c1cccc(F)c1,Active,> 50,–
O[C@H]1CC[C@@H](Oc2cccc(Cl)c2)CC1,Active,–,–
O[C@H]1CC[C@@H](Oc2ccc(Cl)cc2)CC1,Active,–,–
CC(=O)NCCc1ccc(O[C@H]2CC[C@@H](SCc3ccccc3)CC2)cc1-c1cccc(F)c1,Active,–,–
CC(=O)NCCc1ccc(O[C@H]2CCC[C@@H](CCc3ccccc3)C2)cc1-c1cccc(F)c1,Active,> 50,–
CC(=O)NCCc1ccc(O[C@@H]2CCC[C@@H](Nc3ccccc3)C2)cc1-c1cccc(F)c1,Active,< 50,–
CC(=O)NCCc1ccc(O[C@H]2CC[C@H](SCc3ccccc3)CC2)cc1-c1cccc(F)c1,Active,< 50,–
O[C@H]1CC[C@H](Oc2ccc(Cl)cc2Cl)CC1,Active,–,–
CC(=O)NCCc1ccc(O[C@H]2CC[C@@H](Oc3ccc(Cl)cc3Cl)CC2)cc1-c1cccc(F)c1,Active,> 50,–
O[C@H]1CC[C@@H](Oc2ccc(Cl)cc2Cl)CC1,Active,–,–
CC(=O)NCCc1ccc(O[C@@H]2CCC[C@@H](CCc3ccccc3)C2)cc1-c1cccc(F)c1,Active,> 50,–
CC(=O)NCCc1ccc(O[C@H]2CCC[C@@H](SCc3ccccc3)C2)cc1-c1cccc(F)c1,Active,–,–
CC(=O)NCCc1ccc(O[C@@H]2CCC[C@@H](Oc3ccccc3)C2)cc1-c1cccc(F)c1,Active,> 50,–
CO[C@@H]1[C@@H](OC(N)=O)[C@@H](O)[C@H](Oc2ccc3c(O)c(NC(=O)c4ccc(O)c(CC=C(C)C)c4)c(=O)oc3c2C)OC1(C)C,Active,–,–
CC(=O)NCCc1ccc(O[C@H]2CCC[C@@H](OCc3ccccc3)C2)cc1-c1cccc(F)c1,Active,> 50,–
CC(=O)NCCc1ccc(O[C@H]2CC[C@@H](S(=O)(=O)Cc3ccccc3)CC2)cc1-c1cccc(F)c1,Active,> 50,–
CC(=O)NCCc1ccc(O[C@H]2CC[C@H](Oc3cccc(Cl)c3)CC2)cc1-c1cccc(F)c1,–,> 50,Active
CC(=O)NCCc1ccc(O[C@H]2CC[C@H](S(=O)(=O)c3ccccc3)CC2)cc1-c1cccc(F)c1,Active,> 50,–
CC(=O)NCCc1ccc(O[C@H]2CC[C@H](Cc3ccccc3)CC2)cc1-c1cccc(F)c1,Active,> 50,–
CC(=O)NCCc1ccc(O[C@@H]2CCC[C@@H](N(C)c3ccccc3)C2)cc1-c1cccc(F)c1,Active,< 50,–
CC(=O)NCCc1ccc(O[C@H]2CC[C@@H](Oc3cccc(Cl)c3)CC2)cc1-c1cccc(F)c1,–,> 50,Active
CC(=O)NCCc1ccc(O[C@H]2CC[C@@H](Oc3ccccc3)CC2)cc1-c1cccc(F)c1,Active,> 50,–
CC(=O)NCCc1ccc(O[C@@H]2CCC[C@@H](SCc3ccccc3)C2)cc1-c1cccc(F)c1,Active,> 50,–
CC(=O)NCCc1ccc(O[C@H]2CC[C@H](N(C)c3ccccc3)CC2)cc1-c1cccc(F)c1,Active,< 50,–
CC(=O)NCCc1ccc(O[C@H]2CCC[C@@H](Cc3ccccc3)C2)cc1-c1cccc(F)c1,Active,> 50,–
CC(=O)NCCc1ccc(O[C@H]2CC[C@@H](Sc3ccccc3)CC2)cc1-c1cccc(F)c1,Active,> 50,–
